Measured values taken from patent US9539323B2, “Methods and compositions for malic enzyme 2 (ME2) as a target for cancer therapy” (Beth Israel Deaconess Medical Center, Inc., priority 2010, dated 2017).

What was measured:
Format in all cases: cell-based, human
[1] = test system: K562 cells; experiment: Proliferation assay (Coulter counter); conditions: for rescue of ME2 knockdown cell cycle phenotype (decreased proliferation): supplementation
Method: Proliferation assay: Control and ME2 deficient cell lines were plated in 6-well plate at a density of 1×10^5 cells/well and maintained at 37° C. in a 5% CO2 incubator. After 24, 72, 120 and 168 hours of initial plating, 0.5 ml cells were diluted into 10 ml of Hanks' buffer and counted by Coulter counter.

[2] = test system: K562 cells; experiment: Erythroid differentiation assay (glycophorin A, CD10, benzidine hemoglobin staining); conditions: for rescue of differentiation mediated by ME2 depletion: supplementation
Method: Erythroid differentiation assay: Induction of surface expression of the erythroid marker glycophorin A and CD10 was determined by indirect immunofluorescence and flow cytometry, as described previously by Hatzivassiliou et al., in Cancer Cell. 8: 311-321 (2005). In brief, K562 cells with or without ME2 knockdown were stained with a mouse FITC-conjugated anti-glycophorin A or CD10 antibody (Dako) at 1:100 dilution in medium plus 10% FCS for 30 min at 4° C. Control cells were stained with FITC-conjugated IgG. Cells expressing hemoglobin were determined by benzidine staining, as previously described by Park et al., in Cell Growth Differ. 12: 481-486 (2001). The benzidine dihydrochloride stock solution contained 0.2% w/v benzidine hydrochloride in 3% acetic acid. Cells (1×10^5) were washed twice in ice-cold PBS. The cell pellets were resuspended in ice-clod PBS. Before staining, 5 μl of 30% H2O2 was added to 1 ml of a stock solution of benzidine solution. The cell suspensions were mixed with the benzidine solution in a 1:1 ratio and counted in a hemocytometer after 30 min. Blue cells were considered to be positive for hemoglobin. The proportion of blue-stained cells was quantified under light microscopy. A total of 500 cells were counted for each sample in triplicate. Shown is the mean±SD of a representative experiment.

[3] = test system: phospho-ERK1/2, phospho-AKT, GATA-1, vimentin; experiment: Western blot of signaling pathways, GATA-1 and vimentin in K562 cells; conditions: K562, 10 μM
Method: K562 cells with or without ME2 knockdown were lysed with RIPA lysis buffer (50 mM Tris-HCl, pH 8.0, 150 mM NaCl, 1% Triton X-100, 1 mM EGTA) containing 1 mM PMSF and a protease inhibitor cocktail and subjected to centrifugation at 15,000×g for […] at 4° C. to remove debris. After lysis, equal aliquots of protein lysate were resolved by Western blotting. Western blots were probed with anti-phospho-ERK1/2, anti-ERK1, anti-p-AKT308, anti-AKT472, anti-AKT1/2, anti-GATA-1, anti-vimentin, and anti-β-tubulin. A: Phospho-ERK1/2 activity in ME2 knockdown K562 cells. B: Phospho-AKT detection in ME2 knockdown K562 cells. C: 10 μM PI3K inhibitor, LY294002, inhibits p-AKT activity. D: LY294002 rescue of differentiation in ME2 knockdown K562 cells. E: The effect of LY294002 on the proliferation of K562 cells with (third to sixth bars in graph) or without ME2 (first to second bars in graph) knockdown. F: The expression difference of GATA-1 and vimentin in ME2 knockdown cells. Data are representative of three independent experiments. […] Membranes were washed in PBS plus 0.1% Tween 20 and probed with anti-rabbit or anti-mouse HRP-conjugated secondary antibody (both at 1:10,000 dilution), and proteins were detected using the ECL Plus chemiluminescence detection reagent (Amersham Biosciences).

[4] = test system: K562 cells; experiment: Determination of cellular reactive oxygen species (CM-H2DCF-DA, MitoSOX); conditions: ME2 knockdown K562 cells, 5.0 mM
Method: Determination of cellular reactive oxygen species (ROS): Intracellular ROS production was measured by staining with CM-H2DCFDA. CM-H2DCFDA is a cell-permeant indicator for ROS that is nonfluorescent until removal of the acetate groups by intracellular esterases and oxidation occurs within the cell. The procedure for measuring ROS was carried out as described in Trachootham et al., in Cancer Cell. 10: 241-252 (2006), with minor modifications. Briefly, K562 cells transduced with shRNA lentiviral particles or control vector were selected with puromycin for 2 weeks, […], followed by flow cytometry using a FACSCalibur equipped with CellQuest Pro software. Superoxide radicals (O2^−) were measured separately using the MitoSOX™ reagent according to the manufacturer's protocol (Invitrogen). In brief, cells with or without ME2 knockdown were incubated with 5 μM MitoSOX™ reagent for 10 minutes at 37° C., then washed three times and observed under a fluorescence microscope using the Rhodamine filter and Axiovision software for capturing images (Zeiss, Germany).

[5] = test system: K562 cells; experiment: Cell death assessed by flow cytometry; conditions: 72 h
Method: A: Cells were treated with different concentrations of amino-oxyacetate and expression levels of the erythroid marker glycophorin A (GPA) on the surface of K562 cells were assessed using a mouse FITC-conjugated anti-human glycophorin A antibody. Each histogram is representative of three experiments. B: K562 cells with or without ME2 knockdown were incubated with different concentrations of AOA for 72 h. Cell death was assessed by flow cytometry. Top: pLKO; Bottom: shME2-3. […] C: Cells were treated with different concentrations of malate and expression levels of the erythroid marker glycophorin A on the surface of K562 cells were assessed using a mouse FITC-conjugated anti-human glycophorin A antibody. Each histogram is representative of three experiments.
K562 cells with or without ME2 knockdown were incubated with 0.1 mM AOA plus 2 mM α-KG for 48 h. Cell death was assessed by flow cytometry. A: pLKO K562 cells without any treatment. B: pLKO K562 cells treated with 0.1 mM AOA for 48 h. C: pLKO K562 cells treated with 0.1 mM AOA combined with 2 mM α-KG.

SMILES: O=c1cc(N2CCOCC2)oc2c(-c3ccccc3)cccc12 [LY294002, 2-morpholin-4-yl-8-phenylchromen-4-one]
- rescue of proliferation inhibition ([1]; ME2 knockdown K562 cells): does not rescue proliferation inhibition in ME2 knockdown cells as effectively
- sensitivity of proliferation inhibition to LY294002 ([1]; ME2 knockdown vs parental K562 cells): more sensitive
- differentiation mediated by ME2 silencing ([2]; ME2 knockdown K562 cells, 10 μM): rescues the differentiation
- p-AKT activity [3]: significantly inhibit p-AKT activity

SMILES: O=C(O)CC(O)C(=O)O (centres unmarked) [malate]
- erythroid differentiation ([2]; wild type K562, 0.1 to 10 mM in medium): could not induce erythroid differentiation

SMILES: Nc1ccn([C@@H]2O[C@H](CO)[C@@H](O)[C@H]2O)c(=O)n1 [cytidine]
- rescue of ME2 knockdown cell cycle phenotype (decreased proliferation) ([1]; ME2 knockdown K562 cells): nor were we able to rescue
- rescue of differentiation mediated by ME2 depletion ([2]; ME2 knockdown K562 cells): could not rescue the differentiation

SMILES: CC(=O)N[C@@H](CS)C(=O)O [NAC, N-acetyl cysteine]
- endogenous ROS [4]: completely inhibited
- differentiation induced by ME2 depletion ([2]; ME2 knockdown K562 cells, 5.0 mM): without affecting differentiation

SMILES: NOCC(=O)O [AOA, amino-oxyacetate]
- cell death ([5]; K562 with ME2 silenced (shME2-3)): induced leukemia cell death (mainly apoptotic)
- cell death ([5]; wild type K562 (pLKO)): induced leukemia cell death (mainly necrotic)
- erythroid differentiation (glycophorin staining) ([2]; K562, 0.2 to 0.8 mM in medium): could not induce erythroid differentiation

SMILES: O=c1ccn([C@@H]2O[C@H](CO)[C@@H](O)[C@H]2O)c(=O)[nH]1 [uridine]
- rescue of ME2 knockdown cell cycle phenotype (decreased proliferation) ([1]; ME2 knockdown K562 cells): nor were we able to rescue
- rescue of differentiation mediated by ME2 depletion ([2]; ME2 knockdown K562 cells): could not rescue the differentiation
